Reference: patent US8697632B2 (priority 2008, dated 2014)
Values joined by “and” are separate entries in the source; they are usually repeats but may differ in a detail not shown here. Equal entries are not always repeated. One block for each molecule: values may come before it. Peptide text beside a SMILES is read from it.

What was measured:
insulin receptor = biological target: T1, insulin receptor (Homo sapiens, UniProt P06213); assay: Insulin receptor competition binding assay (scintillation proximity); settings: Table 9; for Ratio: IGF-1 receptor vs insulin receptor binding
T1 construct: expressed in transfected cells; plasma membrane fragments
T1 sequence (P06213 28-758 limits assumed): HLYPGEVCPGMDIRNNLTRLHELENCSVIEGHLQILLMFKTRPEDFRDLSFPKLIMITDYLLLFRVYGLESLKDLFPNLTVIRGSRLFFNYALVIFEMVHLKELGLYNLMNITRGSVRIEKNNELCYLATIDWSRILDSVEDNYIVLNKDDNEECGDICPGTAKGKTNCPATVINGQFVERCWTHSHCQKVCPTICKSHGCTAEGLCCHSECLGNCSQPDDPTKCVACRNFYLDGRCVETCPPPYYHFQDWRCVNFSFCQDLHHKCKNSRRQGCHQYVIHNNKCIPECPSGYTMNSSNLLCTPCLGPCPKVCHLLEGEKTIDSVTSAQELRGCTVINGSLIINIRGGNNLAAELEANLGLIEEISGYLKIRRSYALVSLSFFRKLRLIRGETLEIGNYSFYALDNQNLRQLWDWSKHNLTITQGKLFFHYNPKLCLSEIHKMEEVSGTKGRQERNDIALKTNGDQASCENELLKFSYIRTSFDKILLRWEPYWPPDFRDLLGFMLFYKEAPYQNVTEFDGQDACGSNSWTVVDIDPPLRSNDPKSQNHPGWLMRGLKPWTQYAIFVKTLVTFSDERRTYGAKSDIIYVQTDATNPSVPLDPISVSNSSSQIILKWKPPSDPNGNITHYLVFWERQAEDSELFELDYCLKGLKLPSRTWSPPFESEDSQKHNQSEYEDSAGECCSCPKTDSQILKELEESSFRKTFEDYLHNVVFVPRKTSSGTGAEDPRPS
T1 sequence (P06213 763-1382 limits assumed): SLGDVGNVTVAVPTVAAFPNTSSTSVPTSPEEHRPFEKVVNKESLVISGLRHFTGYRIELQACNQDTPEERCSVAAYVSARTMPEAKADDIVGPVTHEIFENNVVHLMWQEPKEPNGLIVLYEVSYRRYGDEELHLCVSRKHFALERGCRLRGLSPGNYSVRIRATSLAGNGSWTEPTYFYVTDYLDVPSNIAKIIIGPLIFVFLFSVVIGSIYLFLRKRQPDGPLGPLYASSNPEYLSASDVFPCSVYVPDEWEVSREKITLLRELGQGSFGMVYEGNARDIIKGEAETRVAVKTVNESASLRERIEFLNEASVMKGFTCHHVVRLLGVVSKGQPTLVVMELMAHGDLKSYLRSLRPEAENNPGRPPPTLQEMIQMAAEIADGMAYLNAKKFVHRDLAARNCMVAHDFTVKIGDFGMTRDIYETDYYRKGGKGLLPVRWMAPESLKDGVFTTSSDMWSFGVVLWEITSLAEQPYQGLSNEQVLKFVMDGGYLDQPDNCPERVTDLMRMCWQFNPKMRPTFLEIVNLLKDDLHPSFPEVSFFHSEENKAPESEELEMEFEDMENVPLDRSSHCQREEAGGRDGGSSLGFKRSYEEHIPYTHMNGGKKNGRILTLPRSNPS

[1] = Dipeptide cleavage from prodrug forms of IGF1 peptides in PBS; type: physicochemical; settings: pH 7.4 at 37° C.
[2] = Rate of model dipeptide cleavage in PBS (model hexapeptide); settings: Table 2, dipeptide on side chain of N-terminal para-amino-Phe of HSRGTF-NH2
Method: The rate of cleavage was determined for the respective propeptides. The concentrations of the propeptides and the model parent peptide were determined by their respective peak areas. […] The slope of this plot provides the rate constant ‘k’.

IGF-1 receptor = biological target: T2, IGF-1 receptor (Homo sapiens, UniProt P08069); assay: IGF-1 receptor competition binding assay (scintillation proximity); settings: Table 9
T2 construct: expressed in transfected cells; plasma membrane fragments
T2 sequence (P08069 31-736 limits assumed): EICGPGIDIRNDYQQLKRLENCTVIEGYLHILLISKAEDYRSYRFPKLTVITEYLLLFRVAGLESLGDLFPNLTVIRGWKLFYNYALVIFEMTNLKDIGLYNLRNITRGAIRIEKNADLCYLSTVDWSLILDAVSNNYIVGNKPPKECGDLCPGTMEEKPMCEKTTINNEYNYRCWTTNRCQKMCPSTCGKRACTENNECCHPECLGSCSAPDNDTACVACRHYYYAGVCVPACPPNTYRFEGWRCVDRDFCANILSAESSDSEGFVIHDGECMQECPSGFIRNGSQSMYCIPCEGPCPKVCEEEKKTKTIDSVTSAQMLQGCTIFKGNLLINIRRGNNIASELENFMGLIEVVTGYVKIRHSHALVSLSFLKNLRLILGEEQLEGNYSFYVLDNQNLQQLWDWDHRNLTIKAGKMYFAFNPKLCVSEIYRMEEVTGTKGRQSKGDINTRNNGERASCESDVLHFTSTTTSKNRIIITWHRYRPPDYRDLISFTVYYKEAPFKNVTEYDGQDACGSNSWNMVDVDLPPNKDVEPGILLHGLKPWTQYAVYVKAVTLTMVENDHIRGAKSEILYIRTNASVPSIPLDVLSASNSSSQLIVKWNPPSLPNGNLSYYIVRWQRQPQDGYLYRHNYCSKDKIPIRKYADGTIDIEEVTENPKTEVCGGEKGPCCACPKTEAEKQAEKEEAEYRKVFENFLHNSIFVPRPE
T2 sequence (P08069 741-1367 limits assumed): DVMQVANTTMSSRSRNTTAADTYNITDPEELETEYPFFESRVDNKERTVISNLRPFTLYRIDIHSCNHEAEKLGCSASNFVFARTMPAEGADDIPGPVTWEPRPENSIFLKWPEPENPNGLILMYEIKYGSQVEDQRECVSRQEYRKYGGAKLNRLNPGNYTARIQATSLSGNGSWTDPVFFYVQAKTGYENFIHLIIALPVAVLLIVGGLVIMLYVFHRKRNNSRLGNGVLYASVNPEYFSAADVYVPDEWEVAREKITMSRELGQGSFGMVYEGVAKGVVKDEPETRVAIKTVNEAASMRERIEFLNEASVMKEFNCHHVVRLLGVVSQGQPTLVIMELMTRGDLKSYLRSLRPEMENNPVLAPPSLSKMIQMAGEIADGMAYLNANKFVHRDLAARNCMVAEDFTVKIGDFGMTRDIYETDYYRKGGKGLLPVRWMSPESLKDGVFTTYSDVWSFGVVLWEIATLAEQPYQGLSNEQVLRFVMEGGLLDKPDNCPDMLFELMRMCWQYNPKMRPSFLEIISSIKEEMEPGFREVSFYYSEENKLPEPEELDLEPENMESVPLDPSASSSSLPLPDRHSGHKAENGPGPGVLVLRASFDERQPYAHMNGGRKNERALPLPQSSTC

[3] = cited from earlier work
[4] = cited from earlier work; remark: listed apart in the source
[5] = in vivo; cited from earlier work

- Ratio (insulin receptor): 82.6
Molecule: CC[C@H](C)[C@H](NC(=O)CN)C(=O)N[C@H](C(=O)N[C@@H](CC(=O)O)C(=O)N[C@@H](CCC(=O)O)C(=O)N[C@H]1CSSC[C@@H]2NC(=O)[C@H](CO)NC(=O)[C@H](CCCNC(=N)N)NC(=O)[C@H](Cc3ccccc3)NC(=O)[C@H](CSSC[C@H](NC(=O)[C@H](CC(C)C)NC(=O)[C@@H](NC(=O)[C@H](CCC(=O)O)NC(=O)[C@@H]3CCCN3C(=O)CN)[C@@H](C)O)C(=O)NCC(=O)N[C@@H](CO)C(=O)N[C@@H](Cc3c[nH]cn3)C(=O)N[C@@H](CC(C)C)C(=O)N[C@@H](C(C)C)C(=O)N[C@@H](CCC(=O)O)C(=O)N[C@@H](C)C(=O)N[C@@H](CC(C)C)C(=O)N[C@@H](Cc3ccc(O)cc3)C(=O)N[C@@H](CC(C)C)C(=O)N[C@@H](C(C)C)C(=O)N[C@H](C(=O)NCC(=O)N[C@@H](CC(=O)O)C(=O)N[C@@H](CCCNC(=N)N)C(=O)NCC(=O)N[C@@H](Cc3ccccc3)C(=O)N[C@@H](Cc3ccc(O)cc3)C(=O)N[C@@H](Cc3ccccc3)C(=O)N[C@@H](CC(N)=O)C(=O)N[C@@H](CCCCN)C(=O)N3CCC[C@H]3C(=O)N[C@H](C(N)=O)[C@@H](C)O)CSSC[C@@H](C(=O)N[C@@H](C)C(N)=O)NC(=O)[C@H](Cc3ccc(O)cc3)NC(=O)[C@H](CCSC)NC(=O)[C@H](CCC(=O)O)NC(=O)[C@H](CC(C)C)NC(=O)[C@H](CCCNC(=N)N)NC(=O)[C@H](CCCNC(=N)N)NC(=O)[C@H](CC(C)C)NC(=O)[C@H](CC(=O)O)NC2=O)NC1=O)C(C)C

Molecule: CC[C@H](C)[C@H](NC(=O)CN)C(=O)N[C@H](C(=O)N[C@@H](CC(=O)O)C(=O)N[C@@H](CCC(=O)O)C(=O)N[C@@H](C)C(=O)N[C@@H](C)C(=O)N[C@@H](Cc1ccccc1)C(=O)N[C@@H](CCCNC(=N)N)C(=O)N[C@@H](CO)C(=O)N[C@@H](C)C(=O)N[C@@H](CC(=O)O)C(=O)N[C@@H](CC(C)C)C(=O)N[C@@H](CCCNC(=N)N)C(=O)N[C@@H](CCCNC(=N)N)C(=O)N[C@@H](CC(C)C)C(=O)N[C@@H](CCC(=O)O)C(=O)N[C@@H](CCSC)C(=O)N[C@@H](Cc1ccc(NC(=O)[C@@H]2CCCN2C(=O)C(C)(C)N)cc1)C(=O)N[C@@H](C)C(=O)N[C@@H](C)C(N)=O)C(C)C [AiB Pro] (HELM PEPTIDE1{G.I.V.D.E.A.A.F.R.S.A.D.L.R.R.L.E.M.[O=C([C@H](Cc1ccc(N[*:3])cc1)N[*:1])[*:2]].A.A.[am]}|PEPTIDE2{[Aib].P}$PEPTIDE1,PEPTIDE2,19:R3-2:R2$$$V2.0)
- dipeptide cleavage / conversion to active form (in words) [1]: spontaneous, non-enzymatic conversion

Molecule: C[C@@H](O)[C@H](NC(=O)CNC(=O)[C@H](CCCNC(=N)N)NC(=O)[C@H](CO)NC(=O)[C@H](Cc1c[nH]cn1)NC(=O)[C@@H](N)Cc1ccc(NC(=O)CNC(=O)CN)cc1)C(=O)N[C@@H](Cc1ccccc1)C(N)=O [Compound 18]
- t1/2 (result in words) [2]: No cleavage

Molecule: C[C@@H](O)[C@H](NC(=O)CNC(=O)[C@H](CCCNC(=N)N)NC(=O)[C@H](CO)NC(=O)[C@H](Cc1c[nH]cn1)NC(=O)[C@@H](N)Cc1ccc(NC(=O)CNC(=O)CO)cc1)C(=O)N[C@@H](Cc1ccccc1)C(N)=O [Compound 19]
- t1/2 (result in words) [2]: No cleavage

- IC50 (insulin receptor; read-out: Insulin Receptor nM IC50:): 0.25 nM
Molecule: CC[C@H](C)[C@H](NC(=O)CN)C(=O)N[C@H](C(=O)N[C@@H](CC(=O)O)C(=O)N[C@@H](CCC(=O)O)C(=O)N[C@H]1CSSC[C@@H]2NC(=O)[C@H](CO)NC(=O)[C@H](CCCNC(=N)N)NC(=O)[C@H](Cc3ccccc3)NC(=O)[C@H](CSSC[C@H](NC(=O)[C@H](CC(C)C)NC(=O)[C@H](Cc3c[nH]cn3)NC(=O)[C@H](CCC(=O)O)NC(=O)[C@@H]3CCCN3C(=O)CN)C(=O)NCC(=O)N[C@@H](C)C(=O)N[C@@H](CC(=O)O)C(=O)N[C@@H](CC(C)C)C(=O)N[C@@H](C(C)C)C(=O)N[C@@H](CC(=O)O)C(=O)N[C@@H](C)C(=O)N[C@@H](CC(C)C)C(=O)N[C@@H](Cc3ccc(O)cc3)C(=O)N[C@@H](CC(C)C)C(=O)N[C@@H](C(C)C)C(=O)N[C@H](C(=O)NCC(=O)N[C@@H](CC(=O)O)C(=O)N[C@@H](CCCNC(=N)N)C(=O)NCC(=O)N[C@@H](Cc3ccccc3)C(=O)N[C@@H](Cc3ccc(O)cc3)C(N)=O)CSSC[C@@H](C(=O)N[C@@H](C)C(N)=O)NC(=O)[C@H](Cc3ccc(O)cc3)NC(=O)[C@H](CC[S+](C)[O-])NC(=O)[C@H](CCC(=O)O)NC(=O)[C@H](CC(C)C)NC(=O)[C@H](CCCNC(=N)N)NC(=O)[C@H](CCCNC(=N)N)NC(=O)[C@H](CC(C)C)NC(=O)[C@H](CC(=O)O)NC2=O)NC1=O)C(C)C (stereo partly shown) [IGF-1 A:B (H5D10Y16L17) (S═O)DPI]

Molecule: CC[C@H](C)[C@H](NC(=O)CN)C(=O)N[C@H](C(=O)N[C@@H](CC(=O)O)C(=O)N[C@@H](CCC(=O)O)C(=O)N[C@H]1CSSC[C@@H]2NC(=O)[C@H](CO)NC(=O)[C@H](CCCNC(=N)N)NC(=O)[C@H](Cc3ccccc3)NC(=O)[C@H](CSSC[C@H](NC(=O)[C@H](CC(C)C)NC(=O)[C@@H](NC(=O)[C@H](CCC(=O)O)NC(=O)[C@@H]3CCCN3C(=O)CN)[C@@H](C)O)C(=O)NCC(=O)N[C@@H](C)C(=O)N[C@@H](CCC(=O)O)C(=O)N[C@@H](CC(C)C)C(=O)N[C@@H](C(C)C)C(=O)N[C@@H](CC(=O)O)C(=O)N[C@@H](C)C(=O)N[C@@H](CC(C)C)C(=O)N[C@@H](Cc3ccc(O)cc3)C(=O)N[C@@H](CC(C)C)C(=O)N[C@@H](C(C)C)C(=O)N[C@H](C(=O)NCC(=O)N[C@@H](CC(=O)O)C(=O)N[C@@H](CCCNC(=N)N)C(=O)NCC(=O)N[C@@H](Cc3ccccc3)C(=O)N[C@@H](Cc3ccc(O)cc3)C(=O)N[C@@H](Cc3ccccc3)C(=O)N[C@@H](CC(N)=O)C(=O)N[C@@H](CCCCN)C(=O)N3CCC[C@H]3C(=O)N[C@H](C(N)=O)[C@@H](C)O)CSSC[C@@H](C(=O)N[C@@H](C)C(N)=O)NC(=O)[C@H](Cc3ccc(O)cc3)NC(=O)[C@H](CCSC)NC(=O)[C@H](CCC(=O)O)NC(=O)[C@H](CC(C)C)NC(=O)[C@H](CCCNC(=N)N)NC(=O)[C@H](CCCNC(=N)N)NC(=O)[C@H](CC(C)C)NC(=O)[C@H](CC(=O)O)NC2=O)NC1=O)C(C)C [IGF-1 A:B(E10Y16L17)]
- IC50 (IGF-1 receptor; IGF-1 Receptor IC50:): 12.2 nM

- Insulin Receptor % insulin (in test) (insulin receptor): 14.0% and 11.3% and 20.1%
- Ratio (insulin receptor): 22.6
- Insulin Receptor % native insulin activity (0.6 nM) (insulin receptor; relative to 0.6 nM): 21.7% and 22.5% and 24.2%
- IGF-1 Receptor % IGF-1 (in test) (IGF-1 receptor): 0.9%
Molecule: CC[C@H](C)[C@H](NC(=O)CN)C(=O)N[C@H](C(=O)N[C@@H](CC(=O)O)C(=O)N[C@@H](CCC(=O)O)C(=O)N[C@H]1CSSC[C@@H]2NC(=O)[C@H](CO)NC(=O)[C@H](CCCNC(=N)N)NC(=O)[C@H](Cc3ccccc3)NC(=O)[C@H](CSSC[C@H](NC(=O)[C@H](CC(C)C)NC(=O)[C@H](Cc3c[nH]cn3)NC(=O)[C@H](CCC(N)=O)NC(=O)[C@H](CC(N)=O)NC(=O)[C@@H](NC(=O)[C@@H](N)Cc3ccccc3)C(C)C)C(=O)NCC(=O)N[C@@H](CO)C(=O)N[C@@H](Cc3c[nH]cn3)C(=O)N[C@@H](CC(C)C)C(=O)N[C@@H](C(C)C)C(=O)N[C@@H](CCC(=O)O)C(=O)N[C@@H](C)C(=O)N[C@@H](CC(C)C)C(=O)N[C@@H](Cc3ccc(O)cc3)C(=O)N[C@@H](CC(C)C)C(=O)N[C@@H](C(C)C)C(=O)N[C@H](C(=O)NCC(=O)N[C@@H](CC(=O)O)C(=O)N[C@@H](CCCNC(=N)N)C(=O)NCC(=O)N[C@@H](Cc3ccccc3)C(=O)N[C@@H](Cc3ccc(O)cc3)C(=O)N[C@@H](Cc3ccccc3)C(=O)N[C@@H](CC(N)=O)C(=O)N[C@@H](CCCCN)C(=O)N3CCC[C@H]3C(=O)N[C@H](C(N)=O)[C@@H](C)O)CSSC[C@@H](C(=O)N[C@@H](C)C(N)=O)NC(=O)[C@H](Cc3ccc(O)cc3)NC(=O)[C@H](CCSC)NC(=O)[C@H](CCC(=O)O)NC(=O)[C@H](CC(C)C)NC(=O)[C@H](CCCNC(=N)N)NC(=O)[C@H](CCCNC(=N)N)NC(=O)[C@H](CC(C)C)NC(=O)[C@H](CC(=O)O)NC2=O)NC1=O)C(C)C [IGF-1 A:In (1-17)-IGF-1 B (18-30)]

Molecule: [GlyA21, ArgB31, ArgB32]insulin
- IGF-1 affinity (in words) [3]: enhanced IGF-1 affinity

Molecule: [LysB29-tetradecanoyl, des(B30)]insulin
- potency in vivo (in words) [4]: reduced potency in vivo
- plasma half life (in words) [5]: increased plasma half life
